Type in all cases: biochemical
Assay [1] has as its target T1, human recombinant FTase (Homo sapiens, UniProt P49354+P49356).
T1 construct: gift from Professor Patrick Casey, Duke University
Description: FTase inactivation, fluorescence assay of farnesylation of Ds-GCVLS after preincubation with inactivator. The conditions noted are these: for inactivation of FTase (result in words): preincubation of FTase with compound, fluorescence assay. On the procedure:
For example, the catalytic ability of FTase was monitored by an assay procedure in which FTase transferred the farnesyl group from FPP to a peptide substitute for Ras. The peptide substitute for Ras in this assay had structural elements in common with Ras, in particular a sequence of four amino acids cysteinyl-valyl-lysyl-serine (cys-val-lys-ser).
Inactivation of the enzyme FTase occurred when the FTase was preincubated with phenylglyoxal monohydrate, as evidenced by (1) a decrease in enzyme activity with increasing time of preincubation with phenylglyoxal monohydrate; and (2) a decrease in enzyme activity with increasing concentration of phenylglyoxal monohydrate. Because of interference of phenylglyoxal monohydrate with the fluorescence assay used, phenylglyoxal monohydrate was removed from the FTase preincubation mixture by ultrafiltration prior to the assay being performed.
FTase assay The fluoresence assay conditions were adapted from a published method. The FTase assay consisted of the measurement of the rate of FTase-catalyzed farnesylation of the fluorescent pentapeptide Ds-GCVLS. Upon farnesylation of the cysteine, the fluoresence emission at =505 nm of the dansyl group is enhanced due to the proximity of the hydrophobic isoprenoid group. Enzyme activity (approximately 60 nM FTase) was monitored at saturating substrate concentrations (10 M farnesyl pyrophosphate, ammonium salt, prepared by successive dilutions of a commercial 2.3 mM solution in methanol:10 mM aqueous NH4OH (7:3) into assay buffer, and 1.0 M Ds-GCVLS) by measurement of the increase in fluorescence emission observed at =505 nm as FTase farnesylated Ds-GCVLS for a period of 10 min. The assay buffer was selected for unreactivity toward PGO: 50 mM NaHEPES, 5 mM DTT, 5 mM MgCl2, 10 μM ZnCl2, and 0.2% n-octyl-β-D-glucopyranoside, pH 7.5. Fluorescence emission was measured with a JASCO FP-77 spectrofluorimeter fitted with a temperature-controlled cuvette holder connected to a 30 C. constant temperature bath. All fluoresence assays were conducted in a 4 mm 4 mm quartz cuvette with excitation at 340 nm.
Inactivation of FTase by PGO FTase was incubated at 30 C in the presence and absence of PGO at various concentrations in 50 mM NaHEPES, 5 mM MgCl2, 10 μM ZnCl2, and 0.2% n-octyl-β-D-glucopyranoside, pH 7.5 (i.e., assay buffer without DTT). Periodically, aliquots of the FTase-PGO reaction mixture were removed and assayed for FTase activity. Because of interference of PGO with the fluorometric assay, the aliquot was first subjected to solvent exchange by size exclusion membrane concentration to remove PGO. The solvent exchange utilized Microcon (Millipore Co.) 30 kD molecular weight cutoff microconcentrators. This also served to stop further inactivation of the enzyme by PGO. A 100-L aliquot of FTase-PGO reaction mixture was pipetted into a Microcon concentrator, which was centrifuged at 12,000 RPM for 8 min at 4 C. The concentrate was resuspended in […] of assay buffer, and centrifugation was repeated. The final concentrate was resuspended in 90 L of assay buffer, and the resulting solution was recovered by inversion of the concentrator and centrifugation at 3500 RPM for 3 min at 4 C. The solution was then assayed for FTase activity as described above. A control was handled as above, except that PGO was omitted from the incubation mixture.

In assay [2] the target is T1, human recombinant FTase. The assay is described as above.
The target in assay [3] is T1, human recombinant FTase. Description: FPP protection of FTase against inactivation by PGO. The conditions noted are these: FPP at various concentrations 2 min, then 10 mM PGO for 30 min at 30° C.; FIG. 3. On the procedure: FIG. 3. Farnesyl pyrophosphate protection of FTase from inactivation by PGO. Points are determined by 100×(FTase activity after incubation with FPP and PGO)/(FTase activity after incubation with FPP without PGO). Assays were carried out after removal of FPP and PGO with a high molecular weight cutoff microconcentrator. Each point is the average of duplicate determinations.
FPP protection of FTase against inactivation by PGO FTase was treated with FPP at various concentrations in assay buffer without DTT for 2 min at 30° C. prior to incubation of the mixture with 10 mM PGO for 30 min at 30° C. The control was incubated with FPP at the corresponding concentration for the full length of time, but without PGO. The mixtures were subsequently subjected to microconcentration and assay, as described above.

A value given as a limit tells only on which side of the number the result lay.

As for `CCC(=O)C(C)=O` [2,3-pentanedione], the “inactivation of FTase (result in words)” value in assay [1] is given as “rapidly inactivated FTase”. The “FTase activity, % of the initial control value” (“FTase activity, %” below) in assay [2] (17 mM, approximately 30 minutes of incubation, 50 mM sodium borate, pH 7.5, FTase 15 nM, Microcon step omitted) was 69%; in assay [2] (33 mM, approximately 30 minutes of incubation, 50 mM sodium borate, pH 7.5, FTase 15 nM, Microcon step omitted), 55%; in assay [2] (66 mM, approximately 30 minutes of incubation, 50 mM sodium borate, pH 7.5, FTase 15 nM, Microcon step omitted), 37%.
In the case of `CCCCCCCCCCC(=O)C=O` [2-oxododecanal], the “time of incubation until FTase activity was lost” value in assay [1] (35 mM 2-oxododecanal, 5% DMSO, data not shown) is listed as at most 2 min. For the same molecule, the “inactivation of FTase (result in words)” value in assay [1] is “rapidly inactivated FTase”.
Consider `O=CC(=O)c1ccc(-c2ccc(C(=O)C=O)cc2)cc1` [4,4′-biphenyldiglyoxaldehyde], for which the “inactivation of FTase (result in words)” value in assay [1] is “rapidly inactivated FTase”. Also, the “FTase activity, %” value in assay [2] (23 μM, 30 minutes of incubation, FTase 15 nM, 4.6% DMSO) worked out at 68%; in assay [2] (93 μM, 30 minutes of incubation, FTase 15 nM, 4.6% DMSO) it was 11%.
As for `CC(=O)c1ccc(-c2ccc(C(C)=O)cc2)cc1` [4,4′-diacetylbiphenyl, reference compound], the “inactivation of FTase (result in words)” value in assay [1] is “did not inactivated FTase”. Further, the “FTase activity compared with the control” value in assay [2] (23 μM, 120 minutes of incubation, FTase 15 nM, 4.6% DMSO) is on record as “the same as the control”.
For the molecule `CC(=O)C(=O)CC(C)CCC=C(C)C` (stereo not shown) [5,9-dimethyl-8-decene-2,3-dione], in assay [1], the “inactivation of FTase (result in words)” value is given as “rapidly inactivated FTase”. The “FTase activity, %” value was 38% in assay [2] (17 μM, 30 minutes of incubation, FTase 15 nM, 4.6% DMSO, Microcon step omitted); 18% in assay [2] (68 μM, 30 minutes of incubation, FTase 15 nM, 4.6% DMSO, Microcon step omitted); 16% in assay [2] (171 μM, 30 minutes of incubation, FTase 15 nM, 4.6% DMSO, Microcon step omitted).
Consider `O=CC(=O)c1ccccc1` [PGO, phenylglyoxal monohydrate], for which the “FTase activity following preincubation with inactivator” value in assay [1] (10 mM PGO for 10 min, PGO removed by microconcentrator, FIG. 1) is “virtual absence of enzyme activity”. Also, the “rate of inactivation of FTase” value is recorded as “slower but still quite rapid” in assay [1] (10 mM PGO, compared with 20 mM, FIG. 2) and “the rate of inactivation was reduced” in assay [2] (5 mM PGO, FIG. 2). In addition, the “inactivation of FTase (result in words)” value in assay [1] (listed as phenylglyoxal monohydrate, monohydrate) was “rapid and virtually complete inactivation”; in assay [1] (monohydrate) it was “rapidly inactivated”. The “effect of preincubation of FTase with FPP on inactivation by PGO” value in assay [3] is “decreased the ability of PGO to inactivate FTase”.
With `CCCCCCCCCCCCCCCC(=O)OC[C@H](O)[C@H]1OC(=O)C(=O)C1=O` [dehydroascorbic acid 6-palmitate], the “inactivation of FTase (result in words)” value in assay [1] is reported as “rapidly inactivated FTase”. The “FTase activity, %” value was 75% in assay [2] (7 μM, 30 minutes of incubation, FTase 15 nM, 0.46% DMSO, Microcon step omitted); 34% in assay [2] (28 μM, 30 minutes of incubation, FTase 15 nM, 0.46% DMSO, Microcon step omitted); 22% in assay [2] (141 μM, 30 minutes of incubation, FTase 15 nM, 0.46% DMSO, Microcon step omitted).

The values are drawn from patent US7344851B2, “Anticancer agents based on prevention of protein prenylation” (Arizona Biomedical Research Commission, priority 1998, dated 2008).
